According to patent US5807688A (priority 1995, dated 1998):
Several values for one entry are separate records, joined by “and”; a condition that tells them apart may be missing. Equal entries are not always repeated.

Assays:
[1] = test system: monoclonal antibody 49.AG.659.12; conditions: cited from earlier work
[2] = target: monoclonal antibody 6D9, raised to phosphonate haptens (2.53) and (2.54); conditions: cited from earlier work
[3] = test system: catalytic monoclonal antibody DF8-D5 (IgG1), elicited to phosphonamidate ester hapten (7.2), hybridoma ECACC 96042612; format: biochemical, mouse; conditions: for Km / kcat / kcat/Km / kcat/kun: pH 6.5
[4] = test system: antibody NPN43C9, elicited to phosphonamidate hapten (9.11); design: kcat/Km: unit not given here; conditions: cited from earlier work; for Kd: read-out: Kd or Ki
[5] = test system: chorismate mutase (EC 5.4.99.5), E. coli enzyme; conditions: cited from earlier work
[6] = target: carboxypeptidase G2 (CPG2) (Pseudomonas sp., UniProt P06621); conditions: cited from earlier work
[7] = mouse, in vivo, ip, 0.5 h; cited from earlier work
[8] = test system: monoclonal antibody CC11-4B4 (IgG1), Appendix line 1, elicited to TSA (7.4); format: binding, mouse; conditions: inhibition elisa; read-out: aK (ELISA) (converted)
[9] = test system: monoclonal antibody AB9-16H6 (IgG1), Appendix line 3, elicited to TSA (7.4); format: binding, mouse; conditions: inhibition elisa; read-out: aK (ELISA) (converted)
[10] = test system: monoclonal antibody DG10-8G7 (IgG1), Appendix line 4, elicited to TSA (7.4); format: binding, mouse; conditions: inhibition elisa; read-out: aK (ELISA)
[11] = test system: monoclonal antibody AC7-4A10 (IgG1), Appendix line 8, elicited to TSA (7.4); format: binding, mouse; conditions: inhibition elisa; read-out: aK (ELISA) (converted)
[12] = target: monoclonal antibody CF6 (IgG1), Appendix line 13, elicited to TSA (7.2); format: binding, mouse
[13] = test system: monoclonal antibody CF7 (IgG2a), Appendix line 14, elicited to TSA (7.2); format: binding, mouse
[14] = test system: monoclonal antibody EA11-D7 (IgG1), Appendix line 32, elicited to TSA (7.2); format: binding, mouse
[15] = test system: JAR human choriocarcinoma cell line; conditions: cited from earlier work
[16] = test system: monoclonal antibody EA11-D7; format: binding, mouse; conditions: read-out: I50

Sequence of carboxypeptidase G2 (CPG2) (P06621 23-415): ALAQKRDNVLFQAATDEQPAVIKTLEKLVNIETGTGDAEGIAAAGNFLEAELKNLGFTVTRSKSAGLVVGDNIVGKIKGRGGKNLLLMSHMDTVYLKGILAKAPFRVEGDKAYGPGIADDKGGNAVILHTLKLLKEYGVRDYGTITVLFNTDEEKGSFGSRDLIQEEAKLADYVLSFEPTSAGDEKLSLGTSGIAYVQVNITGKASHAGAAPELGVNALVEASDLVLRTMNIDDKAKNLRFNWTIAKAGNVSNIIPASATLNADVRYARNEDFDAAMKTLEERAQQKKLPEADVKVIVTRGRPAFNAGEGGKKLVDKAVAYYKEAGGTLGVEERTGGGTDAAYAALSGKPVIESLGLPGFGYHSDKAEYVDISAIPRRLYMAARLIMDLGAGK

Question: What does the source list for `CC(C)[C@@H](N)C(=O)OC[C@H]1O[C@@H](n2cc(F)c(=O)[nH]c2=O)C[C@@H]1O` [9.4]?
Answer: Km [1]: 215 µM and 218 µM; kcat [1]: 0.0005 s⁻¹

Question: Which Ki [2] does the source give for `O=C(N[C@H](CO)[C@H](OP(=O)(O)Cc1ccc(NC(=O)C(F)(F)F)cc1)c1ccc([N+](=O)[O-])cc1)C(Cl)Cl` [2.54] here?
Answer: 60 nM

Question: With `COc1ccc(OC(=O)Nc2cc(C(=O)O)cc(C(=O)O)c2)cc1` [9.14, 4-methoxyphenyl N-(3,5-dicarboxyphenyl)carbamate] as the compound, how does the Km [3] read?
Answer: 58 µM

Question: What about the kcat [3] of the same compound?
Answer: 0.0817 s⁻¹

Question: What about the kcat/Km [3] of the same compound?
Answer: 0.08 E6

Question: And the kcat/kun [3]?
Answer: 1.2 E6

Question: Which results are given for `O=C(Nc1cc(C(=O)O)cc(C(=O)O)c1)Oc1ccc(Br)cc1` [9.12, 4-bromophenyl N-(3,5-dicarboxyphenyl)carbamate]?
Answer: Km [3]: 80 µM; kcat [3]: 0.1 s⁻¹; kcat/Km [3]: 0.075 E6; kcat/kun [3]: 1 E5

Question: Which “cytotoxicity of the prodrug alone” value (LoVo cells) does the source give for `O=C(Nc1cc(C(=O)O)cc(C(=O)O)c1)Oc1ccc(N(CCCl)CCCl)cc1` [9.2] here?
Answer: significant amount of background cytotoxicity

Question: What does the source list for `O=C(Cc1ccccc1)Oc1ccc([N+](=O)[O-])cc1` [NO2]?
Answer: Km [4]: 53 µM; kcat [4]: ca. 25 s^-1; kcat/Km [4]: ca. 470; Kd [4]: 1000 nM

Question: For `O=C(Cc1ccc(NC(=O)C(F)(F)F)cc1)O[C@H](c1ccc([N+](=O)[O-])cc1)[C@@H](CO)NC(=O)C(Cl)Cl` [2.56], which “rate enhancement, kcat/kuncat” value [2] is on record?
Answer: 1.8×10^3

Question: With `O=C(Nc1cc(C(=O)O)cc(C(=O)O)c1)Oc1ccc([N+](=O)[O-])cc1` [9.9, 4-nitrophenyl N-(3,5-dicarboxyphenyl)carbamate] as the compound, how does the Km [3] read?
Answer: 120 µM

Question: What about the kcat [3] of the same compound?
Answer: 0.3 s⁻¹

Question: And the kcat/Km [3]?
Answer: 0.15 E6

Question: And the kcat/kun [3]?
Answer: 300

Question: For `C=C(O[C@@H]1C=C(C(=O)O)C=C[C@H]1O)C(=O)O` [chorismate, (-)-Chorismic acid], which Km [5] is on record?
Answer: 15 µM

Question: What does the source list for `O=C(Nc1cc(C(=O)O)cc(C(=O)O)c1)Oc1ccc(F)cc1` [9.13, 4-Fluorophenyl N-[(3,5-dicarboxy)phenyl]carbamate]?
Answer: Vmax [3]: 1.1 µM/min; Km [3]: 41 µM; kcat [3]: 0.12 s⁻¹; kcat/Km [3]: 0.17 E6; kcat/kun [3]: 4 E5

Question: With `O=C(O)CC[C@H](NC(=O)c1ccc(N(CCCl)CCCl)cc1)C(=O)O` [3.4, para-[bis(2-chloroethyl)amino]benzoyl-Lglutamic acid] as the compound, how does the Km [6] read?
Answer: 4.9 µM

Question: What about the “mean concentration, Gut” value [7] of the same compound?
Answer: 12.3

Question: What about the “mean concentration, Kidney” value [7] of the same compound?
Answer: 2.9

Question: What about the “mean concentration, Liver” value [7] of the same compound?
Answer: 22.0

Question: What about the “mean concentration, Lung” value [7] of the same compound?
Answer: 0.2

Question: And the “mean concentration, Tumour” value [7]?
Answer: < 0.05

Question: With `O=Cc1ccc(OC(=O)Cc2ccccc2)cc1` [CHO] as the compound, how does the Km [4] read?
Answer: 250 µM

Question: What about the kcat [4] of the same compound?
Answer: 1.0 ± 0.1 s⁻¹

Question: What about the kcat/Km [4] of the same compound?
Answer: 4.1

Question: What about the Kd [4] of the same compound?
Answer: 90000 ± 10000 nM

Question: What does the source list for `O=C(O)CCCC(=O)Nc1ccc(CP(=O)(O)Nc2cc(C(=O)O)cc(C(=O)O)c2)cc1` [7.7, N-[(3,5-Dicarboxy)phenyl]-P-[N-(4'-carboxybutyroyl)-4-aminophenyl-methyl]phosphonamidic acid]?
Answer: IC50 [8]: 76.9 nM; IC50 [9]: 833 nM; IC50 [10]: 10 nM; IC50 [11]: 0.455 nM

Question: For `Cc1ccc(OC(=O)Cc2ccccc2)cc1` [Me], which Km [4] is on record?
Answer: ~3000 µM

Question: And the kcat [4]?
Answer: 0.15 ± 0.03 s⁻¹

Question: What about the kcat/Km [4] of the same compound?
Answer: 1.01

Question: What does the source list for `O=C(Cc1ccccc1)Oc1ccc(Cl)cc1` [Cl]?
Answer: Km [4]: 720 µM; kcat [4]: 1.7 ± 0.2 s⁻¹; kcat/Km [4]: 0.049; Kd [4]: 180000 ± 40000 nM

Question: Which “Ka (BIAcore)” value [12] does the source give for `CCOP(=O)(Cc1ccc(N)cc1)Nc1cc(C(=O)O)cc(C(=O)O)c1` (stereo not drawn) [7.37, Ethyl N-[(3,5-dicarboxy)phenyl]-P-(4-aminophenylmethyl)phosphonamidate] here?
Answer: 2.19e+08 M⁻¹

Question: What about the ka ([12]; biacore) of the same compound?
Answer: 56600 M⁻¹ s⁻¹

Question: And the kd ([12]; biacore)?
Answer: 0.000258 s⁻¹

Question: And the “Ka (BIAcore)” value [13]?
Answer: no binding

Question: And the “kd, mean” value ([14]; biacore)?
Answer: 2.54e-05 s⁻¹

Question: With `CC(=O)c1ccc(OC(=O)Cc2ccccc2)cc1` [CH3 CO] as the compound, how does the Km [4] read?
Answer: ~3000 µM

Question: What about the kcat [4] of the same compound?
Answer: ca. 0.87 s^-1

Question: And the kcat/Km [4]?
Answer: ca. 0.282

Question: Which IC50 [15] does the source give for `CS(=O)(=O)OCCN(CCCl)c1ccc(C(=O)O)cc1` [3.16] here?
Answer: 220000 ± 10000 nM

Question: Which IC50 [16] does the source give for `CCOP(=O)(O)Cc1ccc([N+](=O)[O-])cc1` [9.8] here?
Answer: 30 nM

Question: For `CCOP(=O)(Cc1ccc(NC(=O)CCCC(=O)O)cc1)Nc1cc(C(=O)O)cc(C(=O)O)c1` (stereo not drawn) [7.6, Ethyl N-[(3,5-dicarboxy)phenyl]-P-[N-(4'-carboxybutyroyl)-4-aminophenylmethyl]phosphonamidate], which Ki [3] is on record?
Answer: 25 nM and 40 nM

Question: And the Kd [14]?
Answer: < 4 nM
